# Results as given in US20230105108A1, “COMPOUNDS FOR THE TREATMENT OF BACTERIAL INFECTIONS AND POTENTIATION OF ANTIBIOTICS” (GEORGIA STATE UNIVERSITY RESEARCH FOUNDATION, INC., priority 2019, published 2023).
# Where a name gives a salt, the structure may show the parent alone. Read-outs that look alike come from different tables or passages of the source.
# Columns and labels:
# M. smegmatis = assay: MIC on mycobacteria; format: cell-based, Mycobacterium smegmatis; settings: for MIC: Mycolicibacterium smegmatis, read-out: MIC on mycobacteria
# B. subtilis = assay: MIC determination and sensitization fold on B. subtilis; format: cell-based; settings: B. subtilis; for MIC: compound alone, read-out: MIC; for Sensitization fold: erythromycin
# E. coli (ATCC 25922) = assay: MIC determination, sensitization fold and FIC index on E. coli; format: cell-based; settings: for Sensitization: compound up to 25 μM
# Protocol: (§1) Bacteria culture and MICs determination: Gram-negative bacteria were cultured in Mueller Hinton II cation-adjusted broth. Gram-positive bacteria were cultured in LB broth. Mycobacterium smegmatis was cultured in Middlebrook 7H9 Broth. MICs of antibiotics itself were determined by performing two-fold serial dilutions of antibiotics. MICs of antibiotics in the presence of bacterial sensitizers were determined by performing two-fold serial dilutions of antibiotics with or without a constant concentration of bacterial sensitizers. The MICs tests were performed on 96-well plates with a final volume of 200 μl Mueller Hinton II cation-adjusted broth in each well. Each well was inoculated with 5×10^5 CFU/ml bacteria and was incubated for 24 h at 37° C. with continuous shaking of 200 rpm. The bacterial density was then determined by OD600. Bacterial growth %=OD600 of antibiotic treatment group/OD600 of antibiotic non-treatment group. MICs was determined as the concentrations that inhibit more than 90% of bacteria growth.
# (§2) Sensitization fold determination and FIC index calculations: Sensitization fold=MIC of antibiotic only/MIC of antibiotic with bacterial sensitizer. […] Since the MICs were determined by performing two-fold serial dilutions of antibiotic, so the sensitization fold can is the times of 2.
# FIC index between compound a and b was calculated according to the formula below: […]
# FIC≤0.5: Synergy; FIC between 0.5 and 1: Additive; FIC between 1 and […]: no interaction; FIC >4: antagonism.
# (§3) Bacteria strains (as indicated in Table 5B) were cultured with rifampicin at various concentrations in the presence or absence of 10 μM of the indicated compound for 20 h at 37° C. The MIC, sensitization, cytotoxicity, and MIC on mycobacteria were tested according to methods described herein. […] The sensitization activities of compounds on MRSA were tested using rifampicin. The sensitization activities of compounds on E. coli were tested using rifampicin.
# [1] = Cytotoxicity in H9c2 cells (CCK-8); format: cell-based; settings: rat, H9c2 cells; for CC50 at 24 h: H9c2 cell line
# Protocol: The cytotoxicity in H9c2 (ATCC®CRL-1446™) cells was also determined. The H9c2 cells were maintained in DMEM (Dulbecco's Modified Eagle's Medium) supplemented with 10% fetal bovine serum (MidSci; S01520HI) and 1% penicillin-streptomycin (Sigma-Aldrich; P4333) at 37° C. with 5% CO2. The H9c2 cells were seeded in 96-well plate one day before the experiment. Different concentrations of di-amidine compounds were added into the H9c2 cells. The cells were then incubated with the compounds for 24 hours at 37° C. with 5% CO2. The cell viability was tested by the CCK-8. Specifically, after 24 hour incubation, 10 μL CCK-8 was added to each well. After 3 hours incubation at 37° C., the absorbance at 450 nm was recorded by a plate reader.
# E. coli = assay: Sensitization of E. coli (sensitization fold), Example 2; format: cell-based
# Protocol: The sensitization fold of select compounds of the present invention was determined. E. coli bacteria were cultured in nutrient broth at 37° C. overnight prior to treatment. […] Bacterial density was measured based on OD600.
# [2] = Cytotoxicity on mammalian cells (CCK-8), NIH3T3; format: cell-based; settings: mouse, NIH3T3 cells, 3T3 cell line
# Protocol: (§4) Cytotoxicity test of bacterial sensitizers on mammalian cells. Cell viability was assessed by using Cell Counting Kit-8 (CCK-8, Dojindo, Japan). HEK293 or NIH3T3 cells were seeded in a 96-well plate one day before the experiment to reach 80% confluency. Cells were then incubated with various concentration of bacterial sensitizers at 37° C. with 5% CO2 for 24 h, then 10 μL of CCK-8 solution was added to each well, and the plate was incubated for an additional at 37° C. 2 h with 5% CO2. The optical density at 450 nm was recorded by plate reader; and the results were calculated as a percentage of viability compared with the untreated control.
# [3] = Cytotoxicity on mammalian cells (CCK-8), HEK293; format: cell-based; settings: human, HEK293 cells; HEK293 cell line; 24 h
# Protocol: as §4
# HEK293 cells = assay: Cytotoxicity on mammalian cells (CCK-8), HEK293; format: cell-based; settings: Homo sapiens
# Protocol: as §4
# MRSA (ATCC 33592) = assay: MIC determination and sensitization fold on MRSA; format: cell-based, methicillin-resistant Staphylococcus aureus; settings: Staphylococcus aureus, 24 h
# Protocol: Bacteria strains: E. coli (ATCC 25922), A. baumannii (ATCC 17978), K. pneumoniae (43816), S. maltophilia (ATCC 31559), S. typhimurium (ATCC 14028), C. werkmanii (ATCC 51114), S. aureus (ATCC 12600) and methicillin-resistant Staphylococcus aureus (MRSA, ATCC 33592) strains were purchased from ATCC. NR698 was provided.
# as §1, §2, §3
# [4] = Escherichia coli, ATCC25922, 24 h
# [5] = 10 μM compound, rifampicin as the antibiotic (Table 6)
# [6] = E. coli, rifampicin, compound at 10 μM
# [7] = E. coli, rifampicin, compound at 12.5 μM
compound,measurement,setting,value
"1, 4-Bis [((4-amidino)-2-methoxy)-phenoxy methyl]2-fluorobenzene dihydrochloride [MD-104]",MIC on mycobacteria,M. smegmatis; M. smegmatis,6 to 12 µM
same,MIC,B. subtilis,25 µM
same,Sensitization fold,B. subtilis; compound at 6 μM,2-fold at 6.
same,Sensitization fold,B. subtilis; compound at 12 μM,8-fold at 12 μM
same,MIC,"E. coli (ATCC 25922); E. coli, compound alone, read-out: MIC",50 µM
same,Sensitization,"E. coli (ATCC 25922); E. coli, rifampicin",No effect up to 25 μM.
N=C(N)Nc1ccc(-c2ccc(-c3ccc(NC(=N)N)cc3)cc2)cc1 [Compound A],IC50 at 24 h,[1]; H9c2 cells (ATCC CRL-1446),50 µM
same,Sensitization ability: fold sensitization of E. coli towards rifampicin,E. coli; compound at 25 μM,"At 25 μM, sensitize E. coli towards rifampicin for 256-fold;"
N=C(N)Nc1ccc(-c2ccc(-c3nc4ccc(NC(=N)N)cc4[nH]3)o2)cc1 [Compound B],IC50 at 24 h,[1]; H9c2 cells (ATCC CRL-1446),100 µM
same,Sensitization ability: fold sensitization of E. coli towards rifampicin,E. coli; compound at 25 μM,"At 25 μM, sensitize E. coli towards rifampicin for 16-fold;"
N=C(N)Nc1ccc(-c2ccc(-c3ccc(NC(=N)N)cc3Cl)o2)c(Cl)c1 [Compound C],IC50 at 24 h,[1]; H9c2 cells (ATCC CRL-1446),50 µM
same,Sensitization ability: fold sensitization of E. coli towards rifampicin,E. coli; compound at 4 μM,"At 4 μM, sensitize E. coli towards rifampicin for 516-fold;"
N=C(N)c1ccc(-c2ccc(-c3ccc(-c4ccc(C(=N)N)o4)o3)o2)cc1 [Compound M],IC50 at 24 h,[1]; H9c2 cells (ATCC CRL-1446),100 µM
same,Sensitization ability: fold sensitization of E. coli towards rifampicin,E. coli; compound at 15 μM,32 fold
same,Sensitization ability: fold sensitization of E. coli towards rifampicin,E. coli; compound at 25 μM,516 fold
N=C(N)c1ccc(-c2ccc(-c3ccc(-c4ccc(C(=N)N)o4)o3)o2)o1 [Compound N],IC50 at 24 h,[1]; H9c2 cells (ATCC CRL-1446),100 µM
same,Sensitization ability: fold sensitization of E. coli towards rifampicin,E. coli; compound at 25 μM,"At 25 μM, sensitize E. coli towards rifampicin for 64-fold."
N=C(N)Nc1ccc(-c2ccc(-c3ccc(-c4ccc(NC(=N)N)cc4)o3)o2)cc1 [Compound O],IC50 at 24 h,[1]; H9c2 cells (ATCC CRL-1446),> 100 µM
same,Sensitization ability: fold sensitization of E. coli towards rifampicin,E. coli; compound at 10 μM,"At 10 μM, sensitize E. coli towards rifampicin for 256-fold."
N=C(N)c1ccc(-c2ccc(-c3ccc(-c4ccc(C(=N)N)o4)s3)s2)o1 [Compound P],IC50 at 24 h,[1]; H9c2 cells (ATCC CRL-1446),50 µM
same,Sensitization ability: fold sensitization of E. coli towards rifampicin,E. coli; compound at 25 μM,"At 25 μM, sensitize E. coli towards rifampicin for 32-fold;"
N=C(N)c1ccc(-c2ccc(-c3ccc(-c4ccc(C(=N)N)s4)o3)o2)s1 [Compound Q],IC50 at 24 h,[1]; H9c2 cells (ATCC CRL-1446),50 µM
same,Sensitization ability: fold sensitization of E. coli towards rifampicin,E. coli; compound at 25 μM,"At 25 μM, sensitize E. coli towards rifampicin for 32-fold;"
N=C(N)c1ccc(-c2ccc(-c3ccc(C(=N)N)cc3)[se]2)cc1 [Compound R],IC50 at 24 h,[1],> 100 µM
same,Sensitization ability: fold sensitization of E. coli towards rifampicin,E. coli; compound at 25 μM,"At 25 μM, sensitize E. coli towards rifampicin for 32-fold;"
N=C(N)c1ccc(-c2ccc(-c3ccc(-c4ccc(C(=N)N)cc4)o3)o2)cc1 [Compound T],IC50 at 24 h,[1]; H9c2 cells (ATCC CRL-1446),> 100 µM
same,Sensitization ability: fold sensitization of E. coli towards rifampicin,E. coli; compound at 25 μM,"At 25 μM, sensitize E. coli towards rifampicin for 32-fold;"
"N=C(N)c1ccc(-c2ccc3[nH]cc(-c4nc5ccc(C(=N)N)cc5[nH]4)c3c2)cc1 [Compound U, 3-(5-Amidinobenzimidazol-2-yl)-5-(4-amidinophenyl)indole acetate salt]",IC50 at 24 h,[1]; H9c2 cells (ATCC CRL-1446),100 µM
same,Sensitization ability: fold sensitization of E. coli towards rifampicin,E. coli; compound at 10 μM,"At 10 μM, sensitize E. coli towards rifampicin for 32-fold;"
"N=C(N)c1ccc(OCc2cccc(COc3ccc(C(=N)N)cc3)c2F)cc1 [DB2573, 1,3-Bis{(4-amidino)-phenoxymethyl}-2-fluorobenzene dihydrochloride]",CC50 at 24 h,[1],50 µM
same,MIC,M. smegmatis,12 µM
same,Sensitization fold,B. subtilis; compound at 12 μM,4-fold at 12 μM
same,MIC,"B. subtilis; Bacillus subtilis, 24 h",25 µM
same,Sensitization fold,"E. coli (ATCC 25922); E. coli, rifampicin, compound at 12 μM",32-fold at 12 μM
same,MIC,E. coli (ATCC 25922); [4],25 µM
"N=C(N)c1ccc(OCc2ccc(COc3ccc(C(=N)N)cc3)cc2)cc1 [MD-101, 1,4-Bis [(4-amidino)-phenoxymethyl]benzene dihydrochloride]",CC50 at 24 h,[1],50 µM
same,MIC,M. smegmatis,3 to 6 µM
same,Sensitization fold,B. subtilis; compound at 3 μM,2-fold at 3 μM.
same,Sensitization fold,B. subtilis; compound at 6 μM,"4-fold at 6 μM,"
same,MIC,"B. subtilis; Bacillus subtilis, 24 h",25 µM
same,CC50 at 24 h,[2],> 100 µM
same,CC50 at 24 h,[3],> 100 µM
same,Sensitization,"E. coli (ATCC 25922); E. coli, rifampicin",No effect up to 25 μM
same,MIC,E. coli (ATCC 25922); [4],100 µM
"CC(C)(C)c1cc(COc2ccc(C(=N)N)cc2)cc(COc2ccc(C(=N)N)cc2)c1 [MD-105, 4,4′-(((5-(tert-butyl)-1,3-phenylene)bis(methylene))bis(oxy))dibenzimidamide dihydrochloride]",CC50 at 24 h,[1],25 µM
same,MIC,M. smegmatis,6 µM
same,IC50,HEK293 cells; HEK293,25 to 50 µM
same,Sensitization fold,E. coli (ATCC 25922); [5],16 fold
same,Sensitization fold,E. coli (ATCC 25922); [6],16-fold at 10 μM.
same,MIC,E. coli (ATCC 25922); [4],25 µM
"N=C(N)c1ccc(OCc2cc(COc3ccc(C(=N)N)cc3)cc(COc3ccc(C(=N)N)cc3)c2)cc1 [MD-107, 4,4′,4″-((benzene-1,3,5-triyltris(methylene))tris(oxy))tribenzimidamide trihydrochloride]",CC50 at 24 h,[1],> 100 µM
same,MIC,M. smegmatis,3 to 6 µM
same,Sensitization fold,B. subtilis; compound at 6 μM,8-fold at 6 μM
same,MIC,"B. subtilis; Bacillus subtilis, 24 h",12.5 µM
same,CC50 at 24 h,[2],> 100 µM
same,CC50 at 24 h,[3],> 100 µM
same,Sensitization fold,E. coli (ATCC 25922); [7],4-fold at 12.5 μM
same,Sensitization fold,"E. coli (ATCC 25922); E. coli, rifampicin, compound at 25 μM",8-fold at 25 μM
same,MIC,E. coli (ATCC 25922); [4],50 µM
"CC(C)(C)c1cc(COc2ccc(C(=N)N)cc2F)cc(COc2ccc(C(=N)N)cc2F)c1 [MD-115, 4,4′-(((5-(tert-butyl)-1,3-phenylene)bis(methylene))bis(oxy))bis(3-fluorobenzimidamide) dihydrochloride]",CC50 at 24 h,[1],25 µM
same,MIC,MRSA (ATCC 33592),25 µM
same,Sensitization fold,B. subtilis; compound at 6 μM,8-fold at 6 μM
same,CC50 at 24 h,[2],25 to 50 µM
same,IC50,HEK293 cells; HEK293,25 to 50 µM
same,CC50 at 24 h,[3],25 to 50 µM
same,Sensitization fold,E. coli (ATCC 25922); [5],256 fold
same,Sensitization fold,E. coli (ATCC 25922); [6],256-fold at 10 μM
"Cc1cc(CSc2ccc(C(=N)N)cc2)cc(CSc2ccc(C(=N)N)cc2)c1 [MD-117, 4,4′-(((5-methyl-1,3-phenylene)bis(methylene))bis(sulfanediyl)) dibenzimidamide dihydrochloride]",MIC,"MRSA (ATCC 33592); MRSA, compound alone, read-out: MIC",12.5 µM
same,Sensitization fold,B. subtilis; compound at 3 μM,8-fold at 3 μM.
same,Sensitization fold,B. subtilis; compound at 6 μM,32-fold at 6 μM
same,MIC,"B. subtilis; Bacillus subtilis, 24 h",25 µM
same,CC50 at 24 h,[2],25 to 50 µM
same,IC50,"HEK293 cells; HEK293 cells (Table 6), read-out: IC50",25 to 50 µM
same,CC50 at 24 h,[3],25 to 50 µM
same,Sensitization fold,E. coli (ATCC 25922); [5],32 fold
same,Sensitization fold,"E. coli (ATCC 25922); E. coli, rifampicin, compound at 6 μM",8-fold at 6 μM.
same,Sensitization fold,E. coli (ATCC 25922); [7],32-fold at 12.5 μM
same,MIC,"E. coli (ATCC 25922); Escherichia coli, ATCC25922, 24 h, E. coli, compound alone, read-out: MIC",50 µM
